According to PubChem BioAssay (NCI):
“And” between values parts separate entries of the source, which are not always exact repeats. Equal entries are not always repeated.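 Cultured in 96-well plates, cells were exposed to test compound for 48 hours across five concentrations. The concentration for 50% growth inhibition is given as GI50. TGI: total growth inhibition.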

Legend:
Experiment in all cases: NCI-60 cell line screen, 48 h
[1] = system: LOX IMVI melanoma
[2] = system: 786-0 renal
[3] = system: SF-539 CNS
[4] = system: MALME-3M melanoma
[5] = system: UACC-257 melanoma
[6] = system: MDA-N
[7] = system: NCI-H23 lung
[8] = system: HOP-62 NSCLC
[9] = system: A549 NSCLC
[10] = system: HCT-15 colon
[11] = system: HT29 colon
[12] = system: HOP-92 NSCLC
[13] = system: SF-295 CNS
[14] = system: SK-OV-3 ovarian
[15] = system: DLD-1 colon
[16] = system: SK-MEL-5 melanoma
[17] = system: KM20L2 colon
[18] = system: DU-145 prostate
[19] = system: SN12C renal
[20] = system: A498 renal
[21] = system: EKVX NSCLC
[22] = system: CAKI-1 renal
[23] = system: DMS 273 small cell lung
[24] = system: OVCAR-3 ovarian
[25] = system: M19-MEL melanoma
[26] = system: UACC-62 melanoma
[27] = system: MOLT-4 leukemia
[28] = system: RPMI-8226 leukemia
[29] = system: SNB-78 CNS
[30] = system: KM12 colon
[31] = system: NCI-H460 lung
[32] = system: SNB-19 CNS
[33] = system: PC-3 prostate
[34] = system: OVCAR-4 ovarian
[35] = system: M14 melanoma
[36] = system: COLO 205 colon
[37] = system: IGROV1 ovarian
[38] = system: MDA-MB-435
[39] = system: SK-MEL-2 melanoma
[40] = system: MCF7 breast
[41] = system: CCRF-CEM leukemia
[42] = system: SK-MEL-28 melanoma
[43] = system: UO-31 renal
[44] = system: ACHN renal
[45] = system: SW-620 colon
[46] = system: K-562 leukemia
[47] = system: NCI-H226 lung
[48] = system: MDA-MB-231 breast
[49] = system: U251 CNS
[50] = system: DMS 114 small cell lung
[51] = system: HCC-2998 colon
[52] = system: HOP-18 NSCLC
[53] = system: HL-60(TB) leukemia
[54] = system: HCT-116 colon

How did the GI50 [1] turn out when `COc1cc(C2C3=C(COC3=O)Oc3cc4c(cc32)OCO4)cc(OC)c1OC` (stereo not given) was run?
Its GI50 is 9.94 nM.

What about the TGI [1] of the same compound?
The TGI was greater than 31600 nM.

What about the GI50 [2] of the same compound?
Its GI50 is 45.6 nM.

And the GI50 [3]?
The GI50 was 14.9 nM.

And the TGI [3]?
The TGI was 49.7 nM and 42.7 nM.

And the GI50 [4]?
The GI50 was 36 nM.

And the TGI [5]?
The TGI was 2860 nM.

What about the TGI [6] of the same compound?
Its TGI is 53.2 nM.

And the GI50 [7]?
The GI50 was 28 nM.

And the GI50 [8]?
Its GI50 is 20 nM.

What about the TGI [8] of the same compound?
Its TGI is 2140 nM.

And the GI50 [9]?
Its GI50 is less than 20.4 nM.

And the TGI [9]?
The TGI was 14200 nM.

And the GI50 [10]?
Its GI50 is 35.4 nM.

What about the GI50 [11] of the same compound?
Its GI50 is 10.5 nM and 26 nM.

What about the TGI [11] of the same compound?
The TGI was 44.4 nM.

And the GI50 [12]?
Its GI50 is less than 11.7 nM.

What about the TGI [12] of the same compound?
Its TGI is 88.2 nM and 90.1 nM.

What about the TGI [13] of the same compound?
The TGI was 57.5 nM.

And the GI50 [14]?
The GI50 was 32 nM.

And the TGI [14]?
The TGI was 13200 nM.

What about the TGI [15] of the same compound?
The TGI was greater than 100000 nM.

What about the GI50 [16] of the same compound?
The GI50 was less than 16.2 nM.

What about the TGI [16] of the same compound?
Its TGI is 189 nM and 681 nM.

What about the TGI [17] of the same compound?
The TGI was 42.1 nM and 28.3 nM.

What about the GI50 [18] of the same compound?
The GI50 was 22 nM.

What about the TGI [18] of the same compound?
The TGI was 87.5 nM and 67.1 nM.

What about the GI50 [19] of the same compound?
Its GI50 is 37 nM.

What about the TGI [19] of the same compound?
The TGI was 20900 nM.

What about the GI50 [20] of the same compound?
Its GI50 is 36.3 nM.

What about the TGI [20] of the same compound?
Its TGI is 18.6 nM.

And the GI50 [21]?
The GI50 was 660 nM.

What about the TGI [22] of the same compound?
Its TGI is 134 nM.

And the TGI [23]?
Its TGI is 12700 nM.

And the TGI [24]?
The TGI was 70.9 nM and 88.3 nM.

And the TGI [25]?
The TGI was greater than 100000 nM.

What about the TGI [26] of the same compound?
Its TGI is greater than 31600 nM.

What about the TGI [27] of the same compound?
The TGI was 15100 nM.

And the GI50 [28]?
Its GI50 is less than 17.6 nM.

What about the TGI [28] of the same compound?
Its TGI is greater than 31600 nM.

And the TGI [29]?
The TGI was 50600 nM.

What about the GI50 [30] of the same compound?
Its GI50 is 10.1 nM.

What about the TGI [30] of the same compound?
Its TGI is 144 nM.

What about the GI50 [31] of the same compound?
Its GI50 is less than 18.5 nM.

What about the GI50 [32] of the same compound?
The GI50 was 47.4 nM.

What about the TGI [32] of the same compound?
Its TGI is 17400 nM.

And the GI50 [33]?
Its GI50 is 20.3 nM.

What about the TGI [33] of the same compound?
The TGI was 313 nM.

What about the TGI [34] of the same compound?
Its TGI is 28500 nM.

What about the GI50 [35] of the same compound?
The GI50 was less than 18.1 nM.

And the TGI [35]?
The TGI was greater than 31600 nM.

And the GI50 [36]?
The GI50 was less than 13.8 nM.

What about the TGI [36] of the same compound?
Its TGI is 92.9 nM and 38.5 nM.

What about the GI50 [37] of the same compound?
Its GI50 is 18.1 nM.

And the TGI [37]?
Its TGI is 13300 nM.

And the GI50 [38]?
Its GI50 is 48.5 nM.

What about the TGI [38] of the same compound?
Its TGI is 80.4 nM and 291 nM.

What about the GI50 [39] of the same compound?
Its GI50 is 262 nM.

What about the GI50 [40] of the same compound?
Its GI50 is 20.4 nM.

What about the GI50 [41] of the same compound?
The GI50 was 22.1 nM.

What about the TGI [41] of the same compound?
The TGI was 338 nM and 62.5 nM.

And the GI50 [42]?
Its GI50 is 11100 nM.

And the TGI [42]?
Its TGI is greater than 31600 nM.

What about the GI50 [43] of the same compound?
Its GI50 is less than 31.5 nM.

And the TGI [43]?
Its TGI is 16100 nM.

And the GI50 [44]?
Its GI50 is less than 15 nM.

And the TGI [44]?
The TGI was 16400 nM.

What about the TGI [45] of the same compound?
Its TGI is greater than 31600 nM.

And the GI50 [46]?
Its GI50 is 32 nM.

And the TGI [46]?
The TGI was 131 nM.

And the TGI [47]?
Its TGI is 230 nM.

And the TGI [48]?
The TGI was 694 nM.

What about the GI50 [49] of the same compound?
The GI50 was less than 21.3 nM.

What about the TGI [50] of the same compound?
Its TGI is 38.4 nM and 13.1 nM.

And the GI50 [51]?
Its GI50 is 21.4 nM.

And the TGI [51]?
The TGI was 62 nM.

What about the GI50 [52] of the same compound?
Its GI50 is greater than 100000 nM.

What about the TGI [52] of the same compound?
Its TGI is greater than 100000 nM.

And the TGI [53]?
Its TGI is 50.2 nM and 41.3 nM.

What about the TGI [54] of the same compound?
Its TGI is 235 nM and 1890 nM.
